Experimental data: patent publication US10065934B2, “Substituted urea derivatives and pharmaceutical uses thereof” (SUNSHINE LAKE PHARMA CO., LTD., priority 2014, dated 2018)
Where two headings read alike, the source gives them in different places. Values belong to the compound of their own block, whether it stands above or below them.

Key:
[1] = target: T1, FLT3 kinase (Homo sapiens, UniProt P36888); assay: In vitro enzymatic inhibitory activity (kinase reaction, FAM-labeled peptide); type: biochemical; conditions: in vitro enzymatic inhibition
T1 sequence (P36888 27-993): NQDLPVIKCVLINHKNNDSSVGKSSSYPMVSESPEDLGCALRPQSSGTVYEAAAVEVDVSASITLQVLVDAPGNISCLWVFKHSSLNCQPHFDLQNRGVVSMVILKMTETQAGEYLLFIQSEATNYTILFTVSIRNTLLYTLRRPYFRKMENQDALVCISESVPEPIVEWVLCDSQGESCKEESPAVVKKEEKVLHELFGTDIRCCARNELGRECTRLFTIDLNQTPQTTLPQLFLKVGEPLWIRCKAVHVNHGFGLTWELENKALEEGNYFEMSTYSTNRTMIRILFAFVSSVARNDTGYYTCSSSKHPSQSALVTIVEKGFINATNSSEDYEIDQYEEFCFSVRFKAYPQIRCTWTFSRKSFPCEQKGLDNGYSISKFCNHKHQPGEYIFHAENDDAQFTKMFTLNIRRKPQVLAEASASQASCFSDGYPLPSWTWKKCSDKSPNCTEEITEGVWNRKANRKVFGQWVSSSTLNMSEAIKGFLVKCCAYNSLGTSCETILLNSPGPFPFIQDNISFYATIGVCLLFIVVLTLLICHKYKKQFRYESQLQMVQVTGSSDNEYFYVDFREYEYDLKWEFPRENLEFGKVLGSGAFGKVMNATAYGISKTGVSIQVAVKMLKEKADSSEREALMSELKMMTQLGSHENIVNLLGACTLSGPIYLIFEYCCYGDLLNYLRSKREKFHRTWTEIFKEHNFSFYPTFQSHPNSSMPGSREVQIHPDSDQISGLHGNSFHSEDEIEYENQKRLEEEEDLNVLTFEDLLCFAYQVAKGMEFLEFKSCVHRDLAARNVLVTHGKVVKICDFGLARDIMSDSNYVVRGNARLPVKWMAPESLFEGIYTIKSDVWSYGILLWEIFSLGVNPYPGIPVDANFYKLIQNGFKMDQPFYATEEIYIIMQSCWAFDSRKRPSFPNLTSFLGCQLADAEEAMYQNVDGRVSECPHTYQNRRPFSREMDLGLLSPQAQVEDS

[2] = test system: MV-4-11 cell; assay: In vitro cytology inhibitory activity (MV-4-11 cell proliferation, cell viability luminescence); type: cell-based; conditions: Homo sapiens, MV4-11; MV-4-11 cells, 72 h incubation
Experimental: Cell assay condition was shown below:
a. A complete medium was prepared and mixed well. b. Cell was recovered, and cell lines of between about two generations in good condition of growth were selected. c. The cell culture flasks were removed from the incubator, and the labeled cell name on the bottles, culture medium type and cell algebra were checked. d. The cell suspension was pipette into a centrifuge tube, and centrifuged at 800-1000 rpm for 3-5 minutes. e. Cell supernatant of the centrifuge tube was aspirated. f. Appropriate volume of culture medium was added into the centrifuge tube, and the cells were resuspended by gentle pipetting uniform. g. Vi-Cell XR cytometer was used for count. h. The cell suspension was adjusted to the appropriate concentration. i. The cell suspension was added to the bottom wall of the white 96-well plate, 100 microliters/well. Cells name, kind of board density and date were detailed labeled, and the culture plate was placed in CO2 incubator overnight.
2. Preparation and Addition of the Test Compounds
i) Preparation of test compound plates by diluting to 10 concentrations with DMSO: first, the test compound stock solution was prepared by dissolving a weighed compound in DMSO to a concentration of 10 mM, and then diluted to the concentration of 4 mM, which was then diluted to the concentration of 0.4 mM used as the highest concentration for testing with DMSO. The highest concentration was sequentially followed by 3-fold dilution for a total of 10 concentrations. Staurosporine was the positive control drug. ii) Addition of test compounds: a. 0.5 μL of test compound prepared above in compound plate was added into the cell culture plate that had been incubated overnight. Then the culture plate was incubated in an incubator at 37° C. for 72 hours.
3. Detection and Analysis
a. 72 hours after the compound treatment, cells was observed under an inverted microscope morphology, and cell growth state in DMSO control well was normal, there was no contamination. b. The cell culture plate was placed in equilibrium at room temperature for 30 minutes. c. The cell viability detection reagent at 100 μL/well was placed into culture plate. d. The mixture in culture plate was mixed two minutes in the vibration plate machine to induce cell lysis. e. 96-well plate was placed for 10 minutes at room temperature, making it stable luminescent signal. f. White base film was pasted on the bottom of the culture plate, and the plate was tested by using Flexstation3 (related to: light, integration time 500 ms). g. Experimental results were recorded and analyzed.

[3] = Evaluation of pharmacokinetic activity in male SD rats (iv and oral); type: in vivo; conditions: rat, plasma; for Cmax: read-out: Cmax
Experimental: 1. Preparation of the Test Compound Solutions
The test compound solutions were prepared using appropriate amounts of 5% DMSO, 5% KolliphorHS15 and 90% Saline to dissolve each compound completely.
140-190 g male SD rats were randomly divided into two groups. One group was administered through intravenous drug delivery with the dosage of 1.0 or 2.0 mg/kg, and the other group was administered by oral with the dosage of 5.0 mg/kg. For intravenous administration, caudal vein blood samples at the time points of 0.0833, 0.25, 0.5, 1.0, 2.0, 4.0, 6.0, 8.0 and 24 h were collected after drug administration (the time point of drug administration was set as 0 h); and for oral administration, caudal vein blood samples at the time points of 0.25, 0.5, 1.0, 2.0, 4.0, 6.0, 8.0 and 24 h were collected after drug administration (the time point of drug administration was set as 0 h). Appropriate range of standard curve was established according to the sample concentration, and the test compound concentrations in plasma sample were measured by LC-MS/MS analysis. Pharmacokinetic parameters were calculated by non-compartmental method using WinNonLin 6.3 software based on drug concentration-time curves.

SMILES: CC(C)(C)c1cc(NC(=O)Nc2ccc(C#Cc3ccc(OCCCN4CCOCC4)c(F)c3)cc2)no1 [Example 1, 1-(5-(tert-Butyl)isoxazol-3-yl)-3-(4-((3-fluoro-4-(3-morpholinopropoxy)phenyl)ethynyl)phenyl)urea]
- IC50 [1]: 115 nM

SMILES: CC(C)(C)c1cc(NC(=O)Nc2ccc(C#Cc3ccc(OCCCN4CCOCC4)c(Cl)c3)cc2)no1 [Example 2, 1-(5-(tert-Butyl)isoxazol-3-yl)-3-(4-((3-chloro-4-(3-morpholinopropoxy)phenyl)ethynyl)phenyl) urea]
- IC50 [1]: 75 nM

SMILES: CC(C)(C)c1cc(NC(=O)Nc2ccc(C#Cc3ccc(OCCCN4CCOCC4)c(C(F)(F)F)c3)cc2)no1 [Example 3, 1-(5-(tert-Butyl)isoxazol-3-yl)-3-(4-((4-(3-morpholinopropoxy)-3-(trifluoromethyl)phenyl)ethynyl)phenyl)urea]
- IC50 [1]: 62 nM

SMILES: CC(C)(C)c1cc(NC(=O)Nc2ccc(C#Cc3ccc(OCCCN4CCOCC4)cc3Cl)cc2)no1 [Example 5, 1-(5-(tert-Butyl)isoxazol-3-yl)-3-(4-((2-chloro-4-(3-morpholinopropoxy)phenyl)ethynyl)phenyl)urea]
- IC50 [1]: 189 nM

SMILES: CC(C)(C)c1cc(NC(=O)Nc2ccc(C#Cc3cnc4ccc(OCCCN5CCOCC5)nn34)cc2)no1 [Example 7, 1-(5-(tert-Butyl)isoxazol-3-yl)-3-(4-((6-(3-morpholinopropoxy)imidazo[1,2-b]pyridazin-3-yl)ethynyl)phenyl)urea]
- IC50 [2]: 3.2 nM

SMILES: CC(C)(C)c1cc(NC(=O)Nc2ccc(C#Cc3cnc4c(OCCN5CCOCC5)ccnn34)cc2)no1 [Example 9, 1-(5-(tert-Butyl)isoxazol-3-yl)-3-(4-((8-(2-morpholinoethoxy)imidazo[1,2-b]pyridazin-3-yl)ethynyl)phenyl)urea]
- AUC(0-inf) ([3]; iv, 1 mg/kg): 1390 ng·h/mL
- AUC(0-t) ([3]; iv, 1 mg/kg): 1330 ng·h/mL
- Tmax ([3]; iv, 1 mg/kg): 0.083 h
- half-life ([3]; iv, 1 mg/kg): 1.7 h
- Cmax ([3]; iv, 1 mg/kg): 793 ng/mL
- Vd ([3]; iv, 1 mg/kg, read-out: Vss): 1.62 L/kg
- bioavailability ([3]; po 5 mg/kg vs iv 1 or 2 mg/kg): 116%
- AUC(0-inf) ([3]; po, 5 mg/kg): 8030 ng·h/mL
- AUC(0-t) ([3]; po, 5 mg/kg): 8010 ng·h/mL
- Tmax ([3]; po, 5 mg/kg): 2.67 h
- half-life ([3]; po, 5 mg/kg): 2.85 h
- Cmax ([3]; po, 5 mg/kg): 1090 ng/mL

SMILES: CC(C)(C)c1cc(NC(=O)Nc2ccc(C#Cc3ccc(OCCCN4C[C@@H]5OCCO[C@@H]5C4)cc3)cc2)no1 [Example 11, 1-(5-(tert-butyl)isoxazol-3-yl)-3-(4-((4-(3-((4aR,7aS)-tetrahydro-2H-[1,4]dioxino[2,3-c]pyrrol-6(3H)-yl)propoxy)phenyl)ethynyl)phenyl)urea]
- IC50 [1]: 169 nM

SMILES: CC(C)(C)c1cc(NC(=O)Nc2ccc(C#Cc3ccc(OCCCN4CCOCC4)nc3)cc2)no1 [Example 17, 1-(5-(tert-Butyl)isoxazol-3-yl)-3-(4-((6-(3-morpholinopropoxy)pyridin-3-yl)ethynyl)phenyl) urea]
- IC50 [2]: 11.7 nM

SMILES: CC(C)(C)c1cc(NC(=O)Nc2ccc(C#Cc3ccc(OCCCN4CCC5(COC5)C4)cc3)cc2)no1 [Example 19, 1-(4-((4-(3-(2-Oxa-6-azaspiro[3.4]octan-6-yl)propoxy)phenyl)ethynyl)phenyl)-3-(5-(tert-butyl)isoxazol-3-yl)urea]
- IC50 [2]: 13.8 nM

SMILES: CC(C)(C)c1cc(NC(=O)Nc2ccc(C#Cc3ccc(OCCCN4CCOCC4)cc3)cc2)no1 [Example 21, 1-(5-(tert-Butyl)isoxazol-3-yl)-3-(4-((4-(3-morpholinopropoxy)phenyl)ethynyl)phenyl)urea]
- IC50 [2]: 2.8 nM

SMILES: CC(C)(C)c1cc(NC(=O)Nc2ccc(C#Cc3ccc(OCCCN4CCOCC4)cc3)cc2F)no1 [Example 81, 1-(5-(tert-Butyl)isoxazol-3-yl)-3-(2-fluoro-4-((4-(3-morpholinopropoxy)phenyl)ethynyl)phenyl)urea]
- IC50 [2]: 4.7 nM

SMILES: CC(C)(C)c1cc(NC(=O)Nc2ccc(C#Cc3ccc(OCCC[N+]4([O-])CCOCC4)cc3)cc2)no1 [Example 82, 4-(3-(4-((4-(3-(5-(tert-Butyl)isoxazol-3-yl)ureido)phenyl)ethynyl)phenoxy)propyl)morpholine 4-oxide]
- IC50 [2]: 3 nM

Second part, the compound after the results:

- IC50 [2]: 2.3 nM
SMILES: CC(C)(C)c1cc(NC(=O)Nc2ccc(C#Cc3ccc(OCCC[N+]4([O-])CCOCC4)cc3F)cc2)no1 [Example 83, 4-(3-(4-((4-(3-(5-(tert-Butyl)isoxazol-3-yl)ureido)phenyl)ethynyl)-3-fluorophenoxy)propyl) morpholine 4-oxide]

- IC50 [2]: 2.1 nM
SMILES: CC(C)(CO)c1cc(NC(=O)Nc2ccc(C#Cc3ccc(OCCCN4CCOCC4)cc3)cc2)no1 [Example 84, 1-(5-(1-Hydroxy-2-methylpropan-2-yl)isoxazol-3-yl)-3-(4-((4-(3-morpholinopropoxy)phenyl)ethynyl)phenyl)urea]

- IC50 [2]: 1.6 nM
SMILES: CC(C)(CO)c1cc(NC(=O)Nc2ccc(C#Cc3ccc(OCCCN4CCOCC4)cc3F)cc2)no1 [Example 85, 1-(4-((2-Fluoro-4-(3-morpholinopropoxy)phenyl)ethynyl)phenyl)-3-(5-(1-hydroxy-2-methylpropan-2-yl)isoxazol-3-yl)urea]

- IC50 [2]: 0.9 nM
SMILES: CC(C)(C)c1cc(NC(=O)Nc2ccc(C#Cc3ccc(OCCCN4CCOCC4)c(O)c3)cc2)no1 [Example 86, 1-(5-(tert-Butyl)isoxazol-3-yl)-3-(4-((3-hydroxy-4-(3-morpholinopropoxy)phenyl)ethynyl)phenyl)urea]

- IC50 [2]: 25.5 nM
SMILES: CC(C)(C)c1cc(NC(=O)Nc2ccc(C#Cc3ccc(OCCCN4CCOCC4)cc3)cc2O)no1 [Example 87, 1-(5-(tert-butyl)isoxazol-3-yl)-3-(2-hydroxy-4-((4-(3-morpholinopropoxy)phenyl)ethynyl)phenyl)urea]

- IC50 [2]: 1.8 nM
SMILES: CC(C)(CO)c1cc(NC(=O)Nc2ccc(C#Cc3ccc(OCCC[N+]4([O-])CCOCC4)cc3)cc2)no1 [Example 88, 4-(3-(4-((4-(3-(5-(1-Hydroxy-2-methylpropan-2-yl)isoxazol-3-yl)ureido)phenyl)ethynyl)phenoxy)propyl)morpholine 4-oxide]

- IC50 [2]: 4.8 nM
SMILES: CC(C)(CO)c1cc(NC(=O)Nc2ccc(C#Cc3ccc(OCCC[N+]4([O-])CCOCC4)cc3F)cc2)no1 [Example 89, 4-(3-(3-Fluoro-4-((4-(3-(5-(1-hydroxy-2-methylpropan-2-yl)isoxazol-3-yl)ureido)phenyl)ethynyl)phenoxy)propyl)morpholine 4-oxide]
